In US20080119496A1, “7-Substituted Purine Derivatives for Immunosuppression” (PHARMACOPEIA DRUG DISCOVERY, INC., priority 2006, published 2008):

How the values were obtained:
[1] = system: IL-2-induced IFN-γ production; test: IL-2-Induced IFN-γ Production in the Mouse; format: in vivo; details: po, 1 h, by gavage one hour before IL-2, serum IFN-γ, female BALB/c mice, read-out: inhibition of IL-2-induced IFN-gamma production
Procedure: Administration of IL-2 leads to an increase in serum IFN-γ in the mouse due to NK secretion of the cytokine (Thornton S, Kuhn K A, Finkelman F D and Hirsch R. NK cells secrete high levels of IFN-γ in response to in vivo administration of IL-2. Eur J Immunol 2001 31:3355-3360). The experiment was carried out essentially according to the protocol in Thornton et al. and the test compounds were administered in order to determine the level of inhibition attained. In summary, female BALB/c mice were fasted for 12-18 hours before a study but had free access to water at all times. Test compounds were administered by gavage one hour before intraperitoneal injection of IL-2 and capture antibody. At termination of the studies, the mice were sacrificed by carbon dioxide inhalation, terminal blood samples were collected by cardiac puncture and serum was generated. Serum was stored frozen until it was assayed for IFN-γ, as described by the kit manufacturer (BD Pharmingen™, San Diego, Calif.).

[2] = system: spontaneous autoimmune diabetes; details: NOD mouse; cited from earlier work
GVHD = details: reviewed in Cetkovic-Cvrlje and Ucken, 2004; cited from earlier work
heart transplantation = details: orally active; Changelian, et al., 2003; cited from earlier work
kidney transplantation = details: orally active; Changelian, et al., 2003; cited from earlier work

SMILES | inhibition at 30 mg/kg [1] | other results
O=c1[nH]c2cnc(-n3cnc4cc(F)ccc43)nc2n1[C@@H]1CCOc2c(F)cccc21 [Example 28, 2-(5-Fluoro-1H-benzo[d]imidazol-1-yl)-9-((R)-8-fluorochroman-4-yl)-7H-purin-8(9H)-one] | > 40% | –
Cn1c(=O)n(C2CCOc3c(F)cc(F)cc32)c2nc(-n3cnc4ccc(C#N)cc43)ncc21 (stereo not shown) [Example 501] | > 40% | –
COc1cc2ncnc(Nc3ccc(O)cc3)c2cc1OC [JANEX-1] | – | spontaneous autoimmune diabetes development [2]: prevent spontaneous autoimmune diabetes development; severity of GVHD (GVHD): attenuate the severity of GVHD
C[C@@H]1CCN(C(=O)CC#N)C[C@@H]1N(C)c1ncnc2[nH]ccc12 [CP690550] | 96% | –
Cn1c(=O)n(C2CCOc3ccc(F)cc32)c2nc(-n3cnc4ccc(C#N)cc43)ncc21 (stereo not shown) [Example 504] | > 40% | –
Cn1c(=O)n([C@@H]2CCOc3c(F)cccc32)c2nc(-n3cnc4ccc(C#N)cc43)ncc21 [Example 505] | > 40% | –
C[C@@H]1CCN(C(=O)CC#N)C[C@@H]1N(C)c1ncnc2[nH]ccc12 [CP-690,550] | – | animal survival / immunosuppression (heart transplantation): prolong animal survival; animal survival / immunosuppression (kidney transplantation): prolong animal survival
O=c1[nH]c2cnc(-n3cnc4ccccc43)nc2n1[C@@H]1CCOc2c(F)cccc21 [Example 16, 2-(1H-Benzo[d]imidazol-1-yl)-9-((R)-8-fluorochroman-4-yl)-7H-purin-8(9H)-one] | > 40% | –
